# From patent US5808100A, “Chromene compounds and photochromic materials” (Tokuyama Corporation, priority 1995, dated 1998)
# How the values were obtained:
# [1] = Photochromic properties of polymer (2 mm thick) containing the chromene compound, xenon lamp irradiation 120 seconds; type: physicochemical; design: key to Color density ε(120)-ε(0): absorbance at λmax after 120 s irradiation minus before, ε(120)-ε(0); conditions: for Color density ε(120)-ε(0): 120 seconds irradiation, 20° C.±1° C.; for Color density ε(120)-ε(0) / ε(0): absorbancy of the polymer not irradiated (initial color): at λmax; for Color fading rate t1/2: time until absorbancy decreases to one-half of [ε(120)-ε(0)]: after 120 seconds irradiation; for Maximum absorption wavelength λMax (developed color tone): polymer after developing color
# Experimental: (§1) 0.05 Parts of the chromene compound obtained in Example 1 was added to 70 parts of a tetraethylene glycol dimethacrylate, 15 parts of a triethylene glycol dimethacrylate, 10 parts of a glycidyl methacrylate and 5 parts of a 2-hydroethyl methacrylate, and was mixed to a sufficient degree. The mixture solution was poured into a mold constituted by a glass plate and a gasket made from an ethylene/vinyl acetate copolymer and then polymerized. The polymerization was conducted by using an air furnace while gradually raising the temperature up to 30° C. to 90° C. over a period of 18 hours, the temperature being maintained at 90° C. for two hours. After the polymerization, the polymer was taken out from the glass mold.
# The obtained polymer (2 mm thick) was irradiated with light from a xenon lamp L-2480 (300 W) SHL-100 manufactured by Hamamatsu Photonics Co. through an Aero Mass filter (manufactured by Corning Co.) for 120 seconds under the conditions of 20° C.±1° C., beam intensities of 365 nm=2.4 mW/cm^2 and […]=24 μW/cm^2 on the polymer surface to develop color and to measure photochromic properties. The photochromic properties were expressed as described below.
# Maximum absorption wavelength (λmax): λmax of the polymer after it has developed color was found by using a spectrophotometer (instantaneous multi-channel photodetector MCPD1000) manufactured by Otsuka Denshi Kogyo Co.
# ε(120): Absorbancy of the polymer using light of a maximum absorption wavelength after it was irradiated under the above-mentioned conditions for 120 seconds.
# ε(0): Absorbancy of the polymer that has not been irradiated using light of a wavelength same as the maximum absorption wavelength of light with which the polymer was irradiated.
# ε(120)-ε(0): Color density
# (§2) Color fading rate [t1/2 ]: Time required by the polymer irradiated for 120 seconds until the absorbancy decreases down to one-half of [ε(120)-ε(0)]. Durability [T1/2 ]: Time required until the absorbency at the maximum absorption wavelength decreases down to 1/2 of the initial absorbency as measured by using a xenon fadometer FAC-25AX-HC manufactured by Suga Shikenki Co.
# (§3) The photochromic polymers were obtained in the same manner as described above but using the compounds obtained in Examples 2 to 33 as chromene compounds. For the purpose of comparison, properties of the compounds represented by the following formulas (A), (B), (D) and (E) were also shown in Table 3. [drawing 110]
# [2] = Durability T1/2 by xenon fadometer FAC-25AX-HC; type: physicochemical; conditions: in polymer
# Experimental: as §1, §2, §3
Structure (SMILES),Color density ε(120)-ε(0) [1],Color fading rate t1/2: time until absorbancy decreases to one-half of [ε(120)-ε(0)] [1] [min],ε(0): absorbancy of the polymer not irradiated (initial color) [1],Maximum absorption wavelength λMax (developed color tone) [1] [nm],Durability T1/2: time until absorbancy at maximum absorption wavelength decreases to 1/2 of the initial [2] [h]
"C1=CC(c2ccccc2)(c2ccccc2)Oc2ccc3ccccc3c21 [A, reference compound]",0.52,0.667,0.04,436,460
"COc1ccc2c3c(ccc2c1)OC(c1ccccc1)(c1ccccc1)C=C3 [B, reference compound]",0.74,1.5,0.04,472,240
Fc1c(C2(c3cccs3)C=Cc3c(ccc4ccccc34)O2)ccc2ccccc12 (centres unmarked) [Compound 1],1.50,1.2,0.04,456,510
C1=CC(c2ccco2)(c2cccc3ccccc23)Oc2ccc3ccccc3c21 (centres unmarked) [Compound 3],1.49,1.38,0.08,496,480
C1=CC(c2ccc3ccccc3c2)(c2ccco2)Oc2ccc3ccccc3c21 (centres unmarked) [Compound 4],1.10,0.983,0.07,486,490
C1=CC(c2ccoc2)(c2ccco2)Oc2ccc3ccccc3c21 (centres unmarked) [Compound 5],1.11,0.833,0.07,466,540
C1=CC(c2ccsc2)(c2ccco2)Oc2ccc3ccccc3c21 (centres unmarked) [Compound 6],1.02,0.75,0.07,464,520
Fc1sccc1C1(c2ccc3ccccc3c2)C=Cc2c(ccc3ccccc23)O1 (centres unmarked) [Compound 7],1.30,1.03,0.05,456,500
Cn1cccc1C1(c2ccc3ccccc3c2)C=Cc2c(ccc3ccccc23)O1 (centres unmarked) [Compound 8],1.00,1,0.06,486,440
C1=CC(c2ccsc2)(c2cc3ccccc3o2)Oc2cc(N3CCCCC3)c3ccccc3c21 (centres unmarked) [Compound 10],1.33,1.37,0.10,460,510
COc1ccc2c3c(ccc2c1)OC(c1ccc2ccccc2c1)(c1cnco1)C=C3 (centres unmarked) [Compound 11],1.36,1.23,0.05,476,490
CCOc1c(C2(c3ccco3)C=Cc3c(ccc4cc(OC)c(C(C)=O)cc34)O2)ccc2ccccc12 (centres unmarked) [Compound 12],1.34,1.1,0.08,510,450
C1=CC(c2ncco2)(c2csc3ccccc23)Oc2ccc3cc(Cc4ccccc4)ccc3c21 (centres unmarked) [Compound 13],1.02,1.03,0.07,480,490
COc1ccc2ccc3c(c2c1)C=CC(c1ccco1)(c1coc2ccccc12)O3 (centres unmarked) [Compound 14],1.06,1,0.07,484,480
C1=CC(c2ccc3ccccc3c2)(c2nccs2)Oc2ccc3ccccc3c21 (centres unmarked) [Compound 16],1.09,0.7,0.06,466,485
COc1ccc2c3c(ccc2c1)OC(c1cccs1)(c1cccc2ccccc12)C=C3 (centres unmarked) [Compound 17],1.23,1.4,0.05,502,470
Fc1ccsc1C1(c2ccc3ccccc3c2)C=Cc2c(ccc3ccccc23)O1 (centres unmarked) [Compound 18],1.15,1.13,0.04,456,505
COc1ccc2c3c(ccc2c1)OC(c1cncs1)(c1cscc1C)C=C3 (centres unmarked) [Compound 19],1.46,1.25,0.06,490,450
CC(=O)Oc1ccc2c3c(ccc2c1)OC(c1ccc(C)s1)(c1cccc2ccccc12)C=C3 (centres unmarked) [Compound 20],1.42,1.48,0.05,506,480
